Source: US12129237B2, “Substituted diaminocarboxamide and diaminocarbonitrile pyrimidines, compositions thereof, and methods of treatment therewith” (SIGNAL PHARMACEUTICALS, LLC, priority 2011, dated 2024)

What follows are compounds tested against T1, JNK1 (Homo sapiens, UniProt P45983) (assay: JNK1 biochemical assays (one or more of: time resolved fluorescence, Z'-LYTE Cascade, radioactive)). Details: Table 2; JNK1 IC50 activity level; read-out: Act. Level.
T1 construct: purchased Carna Biosciences
T1 sequence (P45983 whole entry): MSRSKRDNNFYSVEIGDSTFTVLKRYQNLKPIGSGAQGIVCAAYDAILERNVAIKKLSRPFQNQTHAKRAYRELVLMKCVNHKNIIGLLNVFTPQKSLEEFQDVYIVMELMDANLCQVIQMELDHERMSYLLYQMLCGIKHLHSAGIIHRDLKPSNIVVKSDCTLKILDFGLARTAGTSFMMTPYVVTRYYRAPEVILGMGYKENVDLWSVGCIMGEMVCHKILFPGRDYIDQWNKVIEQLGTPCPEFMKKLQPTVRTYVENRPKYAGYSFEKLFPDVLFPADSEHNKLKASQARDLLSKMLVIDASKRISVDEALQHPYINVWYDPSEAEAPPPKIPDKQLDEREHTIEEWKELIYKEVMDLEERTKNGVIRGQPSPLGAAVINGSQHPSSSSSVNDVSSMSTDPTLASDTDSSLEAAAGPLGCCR
Protocol: JNK1 Assay. A 384-well time resolved fluorescence assay was used to monitor JNK1 activity. The JNK1 assay was run in the following assay buffer: 50 mM HEPES, 10 mM MgCl2, 1 mM EGTA, 2 mM DTT, and 0.01% Tween 20. To initiate the reaction 100 nM of ULight™-labeled 4EBP1 peptide (Perkin-Elmer) and 5 μM of ATP were mixed with 500 pM of JNK1 (Carna Biosciences), for a total assay volume of 20 μL in each well. The assay was incubated at room temperature for 1 h and terminated using a mixture of 30 mM EDTA and 4 nM Eu-anti-4EBP1, by adding 20 μL of stop solution to each well. Plates were read on a Perkin-Elmer Envision Reader.
JNK1 Assay. The JNK1 Z′-LYTE® Cascade kinase assay was run in the following buffer: 50 mM HEPES at pH 7.5, 0.01% BRIJ-35, 10 mM MgCl2, 1 mM EGTA, and 1 mM DTT. […] The assay was incubated at room temperature for 1 h. […] The data was then read on a fluorescence plate reader and analyzed.
JNK1 assay. The radioactive JNK kinase assay was carried out in a 96-well plate format at a final volume of 100 μL. […] JNK1 was diluted in the following dilution buffer (20 mM HEPES pH 7.6, 0.1 mM EDTA, 2.5 mM MgCl2, 0.004% (w/v) Triton X100, 2 μg/ml Leupeptin, 20 mM B-glycerol phosphate, 0.1 mM Na3VO4 dithiothreitol) and then pre-mixed with cJun diluted in the substrate solution buffer (20 mM HEPES pH 7.6, 50 mM NaCl, 0.1 mM EDTA, 2.5 mM MgCl2, 0.05% (w/v) Triton X100). […] The enzyme, substrate and inhibitor mixture was allowed to equilibrate at room temperature for 15 minutes. The reaction was started by the addition of 10 μL of 10×ATP in kinase buffer (130 mM MgCl2, 6 mM dithiothreitol, 150 mM para-nitrophenyl phosphate, 100 μCi/ml γ-[^33P]-ATP). Reactions were allowed to proceed for 60 minutes before precipitation of protein via trichloroacetic acid (7.2% TCA final). […] The precipitate was washed with Phosphate Buffered Saline and the amount of phosphate incorporated into cJun was quantified by scintillation counting using a Packard Topcount-NXT. All assays were conducted under conditions where phosphate incorporation was linear with respect to time and enzyme concentration.
Work on `COc1ccc(-c2ccccc2)cc1Nc1ncc(C(N)=O)c(Nc2ccccc2)n1` [Example B-29, 2-(4-methoxybiphenyl-3-ylamino)-4-(phenylamino)pyrimidine-5-carboxamide] yielded an IC50 of 1000 to 10000 nM.
Compound `NC(=O)c1cnc(N[C@@H]2CCc3cnccc3C2)nc1N[C@@H]1CCC[C@H](O)C1` [Example B-96, 4-((1R,3S)-3-hydroxycyclohexylamino)-2-((R)-5,6,7,8-tetrahydroisoquinolin-6-ylamino)pyrimidine-5-carboxamide] has an IC50 of under 200 nM.
For `Cc1cccc(Nc2ncc(C(N)=O)c(Nc3ccccc3)n2)c1` [Example B-28, 4-(phenylamino)-2-(m-tolylamino)pyrimidine-5-carboxamide], the IC50 was under 200 nM.
For `NC(=O)c1cnc(N[C@H]2CCc3ncccc3C2)nc1N[C@@H]1CCCC[C@H](O)C1` [Example B-97, 4-((1R,3S)-3-hydroxycycloheptylamino)-2-((S)-5,6,7,8-tetrahydroquinolin-6-ylamino)pyrimidine-5-carboxamide], the IC50 was under 200 nM.
With `NC(=O)c1cnc(N[C@@H]2CCc3cccnc3C2)nc1N[C@@H]1CCC[C@H](O)C1` [Example B-88, 4-((1R,3S)-3-hydroxycyclohexylamino)-2-((R)-5,6,7,8-tetrahydroquinolin-7-ylamino)pyrimidine-5-carboxamide] the IC50 was under 200 nM.
`NC(=O)c1cnc(NCCc2ccccn2)nc1Nc1ccccc1` [Example B-63, 4-(phenylamino)-2-(2-(pyridin-2-yl)ethylamino)pyrimidine-5-carboxamide] gave an IC50 of 200 to 800 nM.

Same assay, conditions: Table 3; JNK1 IC50 activity level; read-out: Act. Level
`CN(C)C(=O)[C@H]1CC[C@H](Nc2ncc(C#N)c(N[C@@H]3CCCC[C@H](O)C3)n2)CC1` [Example C-45, (1R,4r)-4-(5-cyano-4-((1R,3S)-3-hydroxycycloheptylamino)pyrimidin-2-ylamino)-N,N-dimethylcyclohexanecarboxamide] showed an IC50 of under 200 nM.
`N#Cc1cnc(N[C@H]2CC[C@H](O)CC2)nc1N[C@@H]1CCCC[C@H](O)C1` [Example C-36] showed an IC50 of under 200 nM.
For `CCO[C@H]1CC[C@H](Nc2ncc(C#N)c(N[C@@H]3CCCC[C@H](O)C3)n2)CC1` [Example C-29, 2-((1r,4R)-4-ethoxycyclohexylamino)-4-((1R,3S)-3-hydroxycycloheptylamino) pyrimidine-5-carbonitrile], the IC50 was under 200 nM.
`CO[C@H]1CC[C@H](Nc2ncc(C#N)c(NC(C)C)n2)CC1` [Example C-17, 4-(isopropylamino)-2-((1r,4r)-4-methoxycyclohexylamino) pyrimidine-5-carbonitrile] was tested, and the IC50 was 800 to 1000 nM.
`N#Cc1cnc(N[C@H]2CC[C@H](OCC(F)(F)F)CC2)nc1N[C@@H]1CCCC[C@H](O)C1` [Example C-30, 4-((1R,3S)-3-hydroxycycloheptylamino)-2-((1r,4R)-4-(2,2,2-trifluoroethoxy)cyclohexylamino) pyrimidine-5-carbonitril] was tested, and the IC50 was under 200 nM.
`CCO[C@H]1CC[C@H](Nc2ncc(C#N)c(N[C@H]3CCOC3)n2)CC1` [Example C-37, 2-((1r,4S)-4-ethoxycyclohexylamino)-4-((S)-tetrahydrofuran-3-ylamino)pyrimidine-5-carbonitrile] gave an IC50 of 200 to 800 nM.

Same assay, conditions: one or more of the JNK1 biochemical assays; read-out: Act. Level (JNK1 IC50 activity level)
Compound `CCO[C@H]1CC[C@H](Nc2ncc(C(N)=O)c(N[C@@H]3CCC[C@@H]3CO)n2)CC1` [Example 209, 2-((1r,4R)-4-ethoxycyclohexylamino)-4-((1R,2S)-2-(hydroxymethyl)cyclopentylamino)pyrimidine-5-carboxamide] has an IC50 of under 200 nM.
Work on `CCC(C)(C)Nc1nc(N[C@H]2CC[C@H](OC)CC2)ncc1C(N)=O` [Example 381, 2-((1r,4r)-4-methoxycyclohexylamino)-4-(tert-pentylamino)pyrimidine-5-carboxamide] yielded an IC50 of under 200 nM.
`C[C@@H](Nc1nc(N[C@H]2CCCOC2)ncc1C(N)=O)C1CC1` [Example 422, 4-((R)-1-cyclopropylethylamino)-2-((S)-tetrahydro-2H-pyran-3-ylamino)pyrimidine-5-carboxamide] gave an IC50 of under 200 nM.
Compound `COC12CCC(Nc3ncc(C(N)=O)c(N[C@@H]4CCC[C@H](O)C4)n3)(CC1)CC2` [Example 231, 4-((1R,3S)-3-hydroxycyclohexylamino)-2-(4-methoxybicyclo[2.2.2]octan-1-ylamino)pyrimidine-5-carboxamide] has an IC50 of under 200 nM.
`NC(=O)c1cnc(NC23CCC(F)(CC2)CC3)nc1N[C@@H]1CCC[C@H](O)C1` [Example 267, 2-(4-fluorobicyclo[2.2.2]octan-1-ylamino)-4-((1R,3S)-3-hydroxycyclohexylamino)pyrimidine-5-carboxamide] showed an IC50 of under 200 nM.
Work on `CO[C@H]1CC[C@H](Nc2ncc(C(N)=O)c(N[C@H](C)C3CC3)n2)CC1` [Example 421, 4-((R)-1-cyclopropylethylamino)-2-((1r,4R)-4-methoxycyclohexylamino)pyrimidine-5-carboxamide] yielded an IC50 of under 200 nM.
`NC(=O)c1cnc(N[C@H]2CC[C@H](OC3CC3)CC2)nc1NC1CCC1` [Example 434, 4-(cyclobutylamino)-2-((1r,4r)-4-cyclopropoxycyclohexylamino)pyrimidine-5-carboxamide] gave an IC50 of under 200 nM.
For `CNC(=O)c1cnc(N[C@H]2CC[C@H](OC)CC2)nc1N[C@@H]1CCC[C@H](O)C1` [Example 206, 4-((1R,3S)-3-hydroxycyclohexylamino)-2-((1r,4R)-4-methoxycyclohexylamino)-N-methylpyrimidine-5-carboxamide], the IC50 was 200 to 800 nM.
Work on `CCC1(Nc2nc(N[C@H]3CC[C@H](OC)CC3)ncc2C(N)=O)CCCC1` [Example 454, 4-(1-ethylcyclopentylamino)-2-((1r,4r)-4-methoxycyclohexylamino)pyrimidine-5-carboxamide] yielded an IC50 of under 200 nM.
`CO[C@H]1CC[C@H](Nc2ncc(C(N)=O)c(NC3(C)CCC3)n2)CC1` [Example 402] was tested, and the IC50 was under 200 nM.
Compound `NC(=O)c1cnc(NC2CCC(F)(F)CC2)nc1N[C@@H]1CCC[C@@H]1CO` [Example 241, 2-(4,4-difluorocyclohexylamino)-4-((1R,2S)-2-(hydroxymethyl)cyclopentylamino)pyrimidine-5-carboxamide] has an IC50 of under 200 nM.
`CC(C)(C)Nc1nc(N[C@@H]2CCC[C@](C)(O)C2)ncc1C(N)=O` [Example 380, 4-(tert-butylamino)-2-((1R,3S)-3-hydroxy-3-methylcyclohexylamino)pyrimidine-5-carboxamide] gave an IC50 of under 200 nM.
`CCCC(C)(C)Nc1nc(N[C@H]2CC[C@H](OC)CC2)ncc1C(N)=O` [Example 392, 2-((1r,4r)-4-methoxycyclohexylamino)-4-(2-methylpentan-2-ylamino)pyrimidine-5-carboxamide] was tested, and the IC50 was under 200 nM.
For `CC(C)(C)C12CC(Nc3nc(N[C@H]4CC[C@H](O)CC4)ncc3C(N)=O)(C1)C2` [Example 493, 4-(3-tert-butylbicyclo[1.1.1]pentan-1-ylamino)-2-((1r,4r)-4-hydroxycyclohexylamino)pyrimidine-5-carboxamide], the IC50 was under 200 nM.
In the case of `CC(C)(Nc1nc(N[C@H]2CC[C@H](OCC(F)(F)F)CC2)ncc1C(N)=O)C1CC1` [Example 482, 4-(2-cyclopropylpropan-2-ylamino)-2-((1r,4r)-4-(2,2,2-trifluoroethoxy)cyclohexylamino)pyrimidine-5-carboxamide], the IC50 is reported as under 200 nM.
`CCO[C@H]1CC[C@H](Nc2ncc(C(N)=O)c(NC3(C)CCCC3)n2)CC1` [Example 488, 2-((1r,4r)-4-ethoxycyclohexylamino)-4-(1-methylcyclopentylamino)pyrimidine-5-carboxamide] showed an IC50 of under 200 nM.
With `C[C@@H](Nc1nc(N[C@H]2CC[C@H](OCC(F)(F)F)CC2)ncc1C(N)=O)C1CC1` [Example 409, 4-((R)-1-cyclopropylethylamino)-2-((1r,4R)-4-(2,2,2-trifluoroethoxy)cyclohexylamino)pyrimidine-5-carboxamide] the IC50 was under 200 nM.

Same assay, conditions: tested in one or more of the JNK1 biochemical assays; read-out: Act. Level (JNK1 biochemical assay IC50 activity level)
Work on `C[C@]1(O)CC[C@H](Nc2ncc(C(N)=O)c(N[C@@H]3CCC[C@H](O)C3)n2)CC1` [Example A-22, 2-((1r,4R)-4-hydroxy-4-methylcyclohexylamino)-4-((1R,3S)-3-hydroxycyclohexylamino)pyrimidine-5-carboxamide] yielded an IC50 of under 200 nM.
Compound `CO[C@H]1CC[C@H](Nc2ncc(C(N)=O)c(N[C@H]3CCNC(=O)C3)n2)CC1` [Example A-25, 2-((1r,4S)-4-methoxycyclohexylamino)-4-((S)-2-oxopiperidin-4-ylamino)pyrimidine-5-carboxamide] has an IC50 of under 200 nM.
`COC[C@H]1CC[C@H](Nc2ncc(C(N)=O)c(N[C@H]3CCC(O)C3)n2)CC1` (stereo partly drawn) [Example A-94, 4-((1S,3R)-3-hydroxycyclopentylamino)-2-((1r,4S)-4-(methoxymethyl)cyclohexylamino)pyrimidine-5-carboxamide] was tested, and the IC50 was under 200 nM.
In the case of `CO[C@H]1CC[C@H](Nc2ncc(C(N)=O)c(N[C@@H]3CCCC[C@@](C)(O)C3)n2)CC1` [Example A-186, 4-((1R,3R)-3-hydroxy-3-methylcycloheptylamino)-2-((1r,4R)-4-methoxycyclohexylamino)pyrimidine-5-carboxamide], the IC50 is reported as under 200 nM.
In the case of `C[C@@H]1CC[C@@H](Nc2nc(NC3CCC(F)(F)CC3)ncc2C(N)=O)C[C@H]1O` [Example A-198, 2-(4,4-difluorocyclohexylamino)-4-((1R,3R,4R)-3-hydroxy-4-methylcyclohexylamino)pyrimidine-5-carboxamide], the IC50 is reported as under 200 nM.
`COC[C@H]1CC[C@@H](Nc2nc(NC3CCN(C(C)=O)CC3)ncc2C(N)=O)CC1` [Example A-83, 2-(1-acetylpiperidin-4-ylamino)-4-((1s,4s)-4-(methoxymethyl)cyclohexylamino)pyrimidine-5-carboxamide] gave an IC50 of 200 to 800 nM.
With `CNC(=O)[C@H]1CC[C@H](Nc2ncc(C(N)=O)c(NC(C)C)n2)CC1` [Example A-199, 4-(isopropylamino)-2-((1r,4r)-4-(methylcarbamoyl)cyclohexylamino)pyrimidine-5-carboxamide] the IC50 was under 200 nM.
`C[C@]1(O)CCC[C@@H](Nc2nc(NC3CCOCC3)ncc2C(N)=O)C1` [Example A-169, 4-((1R,3S)-3-hydroxy-3-methylcyclohexylamino)-2-(tetrahydro-2H-pyran-4-ylamino)pyrimidine-5-carboxamide] showed an IC50 of under 200 nM.
